Data reported in patent US9326973B2, “Hepatitis C virus inhibitors” (priority 2012, dated 2016).

The molecules below were run on HCV replicon, genotype-1a variant with glutamine 30 changed to glutamate in the NS5A protein (assay: microbe, parasite or virus in culture). Conditions: HCV replicon genotype 1a Q30E (Q→E) variant; test compound titrated with an NS5A-targeting compound (BMS-790052 fixed at 200 nM); ranking of synergist activity.
Type: cell-based, HCV genotype 1a
Procedure, shortened: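 Synergy was assessed by combining several fixed amounts of an NS5A-targeting compound with a titration of the second compound of interest.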
`CC(C)(C)[C@H](NC(=O)C1CCC(F)(F)C1)c1nc(-c2ccc(-c3ccc(-c4c[nH]c([C@@H](NC(=O)C5CCC(F)(F)C5)C(C)(C)C)n4)cc3)cc2)c[nH]1` (some centres unmarked) [Compound N-111A] was tested, and the “Fold-Synergistic 1a (Q30E)” value was over 100 fold. `CC(C)[C@H](NC(=O)C(=O)N(C(C)C)C1CC1)c1nc(-c2ccc(-c3ccc(-c4c[nH]c([C@@H](NC(=O)C(=O)N(C(C)C)C5CC5)C(C)C)n4)cc3)cc2)c[nH]1` [Compound W-55] was tested, and the “Fold-Synergistic 1a (Q30E)” value was over 100 fold. With `O=C(N1CCC[C@H]1c1ncc(-c2ccc(-c3ccc(-c4cnc([C@@H]5CCCN5C(=O)C5(c6ccccc6F)CCCC5)[nH]4)cc3)cc2)[nH]1)C1(c2ccccc2F)CCCC1` [Compound S-155] the “Fold-Synergistic 1a (Q30E)” value was under 10 fold. With `CC(C)[C@@H](O)C(=O)N[C@H](c1nc(-c2ccc(-c3ccc(-c4c[nH]c([C@@H](NC(=O)[C@H](O)C(C)C)C(C)(C)C)n4)cc3)cc2)c[nH]1)C(C)(C)C` [Compound L-82] the “Fold-Synergistic 1a (Q30E)” value was over 100 fold. With `CC(C)(C)[C@H](NC(=O)C1(C)CC1(F)F)c1nc(-c2ccc(-c3ccc(-c4c[nH]c([C@@H](NC(=O)C5(C)CC5(F)F)C(C)(C)C)n4)cc3)cc2)c[nH]1` (stereo partly drawn) [Compound L-58a] the “Fold-Synergistic 1a (Q30E)” value was over 100 fold. `CC(C)[C@H](NC(=O)[C@@H]1C[C@H](O)CN1C(=O)OC(C)(C)C)c1nc(-c2ccc(-c3ccc(-c4c[nH]c([C@@H](NC(=O)[C@@H]5C[C@H](O)CN5C(=O)OC(C)(C)C)C(C)C)n4)cc3)cc2)c[nH]1` [Compound W-100] was tested, and the “Fold-Synergistic 1a (Q30E)” value was over 100 fold. `CC(C)CC(=O)N[C@H](c1nc(-c2ccc3cc(-c4ccc(-c5cnc([C@@H](NC(=O)CC(C)C)C(C)C)[nH]5)cc4)ccc3c2)c[nH]1)C(C)C` [Compound P-2] was tested, and the “Fold-Synergistic 1a (Q30E)” value was over 10 fold. For `CC(C)(C)[C@H](NCC1CCCCC1)c1nc(-c2ccc(-c3ccc(-c4c[nH]c([C@@H](NCC5CCCCC5)C(C)(C)C)n4)cc3)cc2)c[nH]1` [Compound L-2], the “Fold-Synergistic 1a (Q30E)” value was over 100 fold. For `N#CC1(C(=O)N2CCC[C@H]2c2ncc(-c3ccc(-c4ccc(-c5cnc([C@@H]6CCCN6C(=O)C6(C#N)CC6)[nH]5)cc4)cc3)[nH]2)CC1` [Compound S-194], the “Fold-Synergistic 1a (Q30E)” value was under 10 fold. In the case of `O=C(N[C@H](c1nc(-c2ccc(-c3ccc(-c4c[nH]c([C@@H](NC(=O)C(=O)N5CCC(F)(F)CC5)C5CC5)n4)cc3)cc2)c[nH]1)C1CC1)C(=O)N1CCC(F)(F)CC1` [Compound L-37], the “Fold-Synergistic 1a (Q30E)” value is reported as over 100 fold. For `CCN(CC1CC1)C(=O)C(C)(C)C(=O)N[C@H](c1nc(-c2ccc(-c3ccc(-c4c[nH]c([C@@H](NC(=O)C(C)(C)C(=O)N(CC)CC5CC5)C(C)(C)C)n4)cc3)cc2)c[nH]1)C(C)(C)C` [Compound W-156], the “Fold-Synergistic 1a (Q30E)” value was over 100 fold. With `O=C(N1CCC[C@H]1c1ncc(-c2ccc(-c3ccc(-c4cnc([C@@H]5CCCN5C(=O)C5(O)CCC(F)(F)CC5)[nH]4)cc3)cc2)[nH]1)C1(O)CCC(F)(F)CC1` [Compound P-185] the “Fold-Synergistic 1a (Q30E)” value was over 100 fold. With `CC(C)(C)[C@H](NC(=O)C1(CF)CCCO1)c1nc(-c2ccc(-c3ccc(-c4c[nH]c([C@@H](NC(=O)C5(CF)CCCO5)C(C)(C)C)n4)cc3)cc2)c[nH]1` (some centres unmarked) [Compound P-161] the “Fold-Synergistic 1a (Q30E)” value was over 100 fold. With `CC(C)(C)[C@H](NC(=O)C1(N2CCC(F)(F)CC2)COC1)c1nc(-c2ccc(-c3ccc(-c4c[nH]c([C@@H](NC(=O)C5(N6CCC(F)(F)CC6)COC5)C(C)(C)C)n4)cc3)cc2)c[nH]1` [Compound W-63] the “Fold-Synergistic 1a (Q30E)” value was over 100 fold. For `CC(C)(C)OC(=O)N1CC(F)(F)C[C@H]1C(=O)N[C@H](c1nc(-c2ccc(-c3ccc(-c4c[nH]c([C@@H](NC(=O)[C@@H]5CC(F)(F)CN5C(=O)OC(C)(C)C)C(C)(C)C)n4)cc3)cc2)c[nH]1)C(C)(C)C` [Compound W-88], the “Fold-Synergistic 1a (Q30E)” value was over 100 fold. With `O=C(c1cccc2c1OCC2)N1CCC[C@H]1c1ncc(-c2ccc(-c3ccc(-c4cnc([C@@H]5CCCN5C(=O)c5cccc6c5OCC6)[nH]4)cc3)cc2)[nH]1` [Compound S-139] the “Fold-Synergistic 1a (Q30E)” value was over 10 fold. In the case of `CC(C)[C@H](NC(=O)[C@@H]1C[C@@H](O)CN1C(=O)OC(C)(C)C)c1nc(-c2ccc(-c3ccc(-c4c[nH]c([C@@H](NC(=O)[C@@H]5C[C@@H](O)CN5C(=O)OC(C)(C)C)C(C)C)n4)cc3)cc2)c[nH]1` [Compound W-97], the “Fold-Synergistic 1a (Q30E)” value is reported as over 100 fold. `CCOC(=O)C(C)(C)C(=O)N[C@H](c1nc(-c2ccc(-c3ccc(-c4c[nH]c([C@@H](NC(=O)C(C)(C)C(=O)OCC)C(C)(C)C)n4)cc3)cc2)c[nH]1)C(C)(C)C` [Compound W-126] was tested, and the “Fold-Synergistic 1a (Q30E)” value was over 100 fold. For `CC(C)(C)[C@H](NC(=O)C(F)(F)C1(O)CCCC1)c1nc(-c2ccc(-c3ccc(-c4c[nH]c([C@@H](NC(=O)C(F)(F)C5(O)CCCC5)C(C)(C)C)n4)cc3)cc2)c[nH]1` [Compound P-164], the “Fold-Synergistic 1a (Q30E)” value was over 100 fold. `O=C(c1nc2ccccc2s1)N1CCC[C@H]1c1ncc(-c2ccc(-c3ccc(-c4cnc([C@@H]5CCCN5C(=O)c5nc6ccccc6s5)[nH]4)cc3)cc2)[nH]1` [Compound S-141] was tested, and the “Fold-Synergistic 1a (Q30E)” value was over 10 fold. `CC(C)CC(=O)NC1(c2nc(-c3ccc(-c4ccc(-c5c[nH]c(C6(NC(=O)CC(C)C)Cc7ccccc7C6)n5)cc4)cc3)c[nH]2)Cc2ccccc2C1` [Compound N-19] was tested, and the “Fold-Synergistic 1a (Q30E)” value was under 10 fold. `COC(C)(C)[C@H](NC(=O)C(C)(C)CF)c1nc(-c2ccc(-c3ccc(-c4c[nH]c([C@@H](NC(=O)C(C)(C)CF)C(C)(C)OC)n4)cc3)cc2)c[nH]1` [Compound P-10] was tested, and the “Fold-Synergistic 1a (Q30E)” value was over 100 fold. In the case of `CC(C)(C)[C@H](NC(=O)C(=O)N(CCC#N)C1CC1)c1nc(-c2ccc(-c3ccc(-c4c[nH]c([C@@H](NC(=O)C(=O)N(CCC#N)C5CC5)C(C)(C)C)n4)cc3)cc2)c[nH]1` [Compound W-48], the “Fold-Synergistic 1a (Q30E)” value is reported as over 100 fold. In the case of `CC(C)(C)[C@H](NC(=O)[C@@]1(C)C[C@H]2CC(F)(F)C[C@H]2C1)c1nc(-c2ccc(-c3ccc(-c4c[nH]c([C@@H](NC(=O)[C@@]5(C)C[C@H]6CC(F)(F)C[C@H]6C5)C(C)(C)C)n4)cc3)cc2)c[nH]1` [Compound P-152], the “Fold-Synergistic 1a (Q30E)” value is reported as over 100 fold. `CC1(C(=O)N[C@H](c2nc(-c3ccc(-c4ccc(-c5c[nH]c([C@@H](NC(=O)C6(C)OCC7(CC7)CO6)C(C)(C)C)n5)cc4)cc3)c[nH]2)C(C)(C)C)OCC2(CC2)CO1` (stereo partly drawn) [Compound L-84] was tested, and the “Fold-Synergistic 1a (Q30E)” value was over 100 fold. `CC(C)(C)[C@H](NC(=O)C1(CO)CCCCO1)c1nc(-c2ccc(-c3ccc(-c4c[nH]c([C@@H](NC(=O)C5(CO)CCCCO5)C(C)(C)C)n4)cc3)cc2)c[nH]1` (some centres unmarked) [Compound P-181] was tested, and the “Fold-Synergistic 1a (Q30E)” value was over 100 fold. For `CC(C)(C)C(=O)N[C@H](c1nc(-c2ccc(-c3ccc(-c4c[nH]c([C@@H](NC(=O)C(C)(C)C)C5CCCC5)n4)cc3)cc2)c[nH]1)C1CCCC1` [Compound N-44], the “Fold-Synergistic 1a (Q30E)” value was over 100 fold. For `COC(=O)C1(C(=O)N[C@H](c2nc(-c3ccc(-c4ccc(-c5c[nH]c([C@@H](NC(=O)C6(C(=O)OC)CC6)C(C)(C)C)n5)cc4)cc3)c[nH]2)C(C)(C)C)CC1` [Compound W-124], the “Fold-Synergistic 1a (Q30E)” value was over 100 fold. In the case of `COC(=O)N1CCC[C@@]1(C)C(=O)N[C@H](c1nc(-c2ccc(-c3ccc(-c4c[nH]c([C@@H](NC(=O)[C@]5(C)CCCN5C(=O)OC)C(C)(C)C)n4)cc3)cc2)c[nH]1)C(C)(C)C` [Compound L-23], the “Fold-Synergistic 1a (Q30E)” value is reported as over 100 fold.
